From ChEMBL document CHEMBL1144021, “Molecular determinants of the anticonvulsant felbamate binding site in the N-methyl-D-aspartate receptor” (J Med Chem, 2008)
Activity calls are given as the source filed them. The calls are words filed in the database; no cut-off is given here.

Assays:
[1] = system: Glutamate receptor ionotropic, NMDA 2B (Homo sapiens), Q13224 [K234A]; assay: Inhibition of NR2B receptor ATD K234A mutant expressed in Xenopus oocytes assessed as NMDA current at 0.5 mM relative to control; format: cell-based; conditions: Oocyte
Glutamate receptor ionotropic, NMDA 2B (Homo sapiens), Q13224 [K234A], sequence (Q13224 whole entry K234A): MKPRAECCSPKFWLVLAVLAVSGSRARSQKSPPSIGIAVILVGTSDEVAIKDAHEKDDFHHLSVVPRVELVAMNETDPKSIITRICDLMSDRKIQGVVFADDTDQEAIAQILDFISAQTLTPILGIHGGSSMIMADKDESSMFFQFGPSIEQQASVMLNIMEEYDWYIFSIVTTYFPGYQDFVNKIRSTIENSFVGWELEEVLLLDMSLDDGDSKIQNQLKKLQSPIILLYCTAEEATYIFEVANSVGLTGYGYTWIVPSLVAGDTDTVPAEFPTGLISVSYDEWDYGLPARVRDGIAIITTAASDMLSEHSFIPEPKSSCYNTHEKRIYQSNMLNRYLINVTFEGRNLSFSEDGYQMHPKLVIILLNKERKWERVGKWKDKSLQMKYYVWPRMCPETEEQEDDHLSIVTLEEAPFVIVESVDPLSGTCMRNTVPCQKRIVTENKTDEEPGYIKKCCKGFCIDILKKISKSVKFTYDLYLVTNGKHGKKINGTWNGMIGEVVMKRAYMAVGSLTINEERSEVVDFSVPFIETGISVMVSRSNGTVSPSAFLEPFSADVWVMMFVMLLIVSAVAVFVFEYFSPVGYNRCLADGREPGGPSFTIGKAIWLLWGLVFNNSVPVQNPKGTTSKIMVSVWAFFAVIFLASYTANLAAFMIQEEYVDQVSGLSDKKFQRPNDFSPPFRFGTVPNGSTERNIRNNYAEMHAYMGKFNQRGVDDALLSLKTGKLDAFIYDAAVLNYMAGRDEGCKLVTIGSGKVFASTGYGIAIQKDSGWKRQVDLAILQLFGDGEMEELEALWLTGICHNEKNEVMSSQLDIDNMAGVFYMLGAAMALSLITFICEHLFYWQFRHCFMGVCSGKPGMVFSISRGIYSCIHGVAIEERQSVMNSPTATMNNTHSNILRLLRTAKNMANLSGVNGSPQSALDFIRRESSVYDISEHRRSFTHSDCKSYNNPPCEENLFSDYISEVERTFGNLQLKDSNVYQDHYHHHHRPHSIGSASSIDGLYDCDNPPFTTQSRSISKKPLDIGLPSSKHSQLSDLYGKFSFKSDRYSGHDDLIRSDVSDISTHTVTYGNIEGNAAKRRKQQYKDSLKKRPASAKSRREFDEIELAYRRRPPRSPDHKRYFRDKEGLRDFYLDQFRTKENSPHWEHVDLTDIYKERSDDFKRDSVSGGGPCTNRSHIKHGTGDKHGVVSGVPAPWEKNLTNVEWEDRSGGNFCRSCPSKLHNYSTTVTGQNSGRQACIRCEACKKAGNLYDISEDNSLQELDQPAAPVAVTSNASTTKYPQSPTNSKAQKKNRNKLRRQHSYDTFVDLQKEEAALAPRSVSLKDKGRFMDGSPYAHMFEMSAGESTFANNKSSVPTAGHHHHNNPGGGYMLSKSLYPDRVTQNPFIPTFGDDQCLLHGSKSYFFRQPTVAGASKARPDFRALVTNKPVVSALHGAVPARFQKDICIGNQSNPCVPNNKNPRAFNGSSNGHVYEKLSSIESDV

[2] = system: Glutamate receptor ionotropic, NMDA 2B (Homo sapiens), Q13224 [E236A]; assay: Inhibition of NR2B receptor ATD E236A mutant expressed in Xenopus oocytes assessed as NMDA current at 0.5 mM relative to control; format: cell-based; conditions: Oocyte
[3] = system: Glutamate receptor ionotropic, NMDA 2B (Homo sapiens), Q13224 [S546A]; assay: Inhibition of NR2B receptor Pre-M1 S546A mutant expressed in Xenopus oocytes assessed as NMDA current at 0.5 mM relative to control; format: cell-based; conditions: Oocyte
[4] = system: Glutamate receptor ionotropic, NMDA 2B (Homo sapiens), Q13224 [S645A]; assay: Inhibition of NR2B receptor M3c S645A mutant expressed in Xenopus oocytes assessed as NMDA current at 0.5 mM relative to control; format: cell-based; conditions: Oocyte
[5] = system: Glutamate receptor ionotropic, NMDA 2B (Homo sapiens), Q13224 [F182A]; assay: Inhibition of NR2B receptor ATD F182A mutant expressed in Xenopus oocytes assessed as NMDA current at 0.5 mM relative to control; format: cell-based; conditions: Oocyte
Glutamate receptor ionotropic, NMDA 2B (Homo sapiens), Q13224 [F182A], sequence (Q13224 whole entry F182A): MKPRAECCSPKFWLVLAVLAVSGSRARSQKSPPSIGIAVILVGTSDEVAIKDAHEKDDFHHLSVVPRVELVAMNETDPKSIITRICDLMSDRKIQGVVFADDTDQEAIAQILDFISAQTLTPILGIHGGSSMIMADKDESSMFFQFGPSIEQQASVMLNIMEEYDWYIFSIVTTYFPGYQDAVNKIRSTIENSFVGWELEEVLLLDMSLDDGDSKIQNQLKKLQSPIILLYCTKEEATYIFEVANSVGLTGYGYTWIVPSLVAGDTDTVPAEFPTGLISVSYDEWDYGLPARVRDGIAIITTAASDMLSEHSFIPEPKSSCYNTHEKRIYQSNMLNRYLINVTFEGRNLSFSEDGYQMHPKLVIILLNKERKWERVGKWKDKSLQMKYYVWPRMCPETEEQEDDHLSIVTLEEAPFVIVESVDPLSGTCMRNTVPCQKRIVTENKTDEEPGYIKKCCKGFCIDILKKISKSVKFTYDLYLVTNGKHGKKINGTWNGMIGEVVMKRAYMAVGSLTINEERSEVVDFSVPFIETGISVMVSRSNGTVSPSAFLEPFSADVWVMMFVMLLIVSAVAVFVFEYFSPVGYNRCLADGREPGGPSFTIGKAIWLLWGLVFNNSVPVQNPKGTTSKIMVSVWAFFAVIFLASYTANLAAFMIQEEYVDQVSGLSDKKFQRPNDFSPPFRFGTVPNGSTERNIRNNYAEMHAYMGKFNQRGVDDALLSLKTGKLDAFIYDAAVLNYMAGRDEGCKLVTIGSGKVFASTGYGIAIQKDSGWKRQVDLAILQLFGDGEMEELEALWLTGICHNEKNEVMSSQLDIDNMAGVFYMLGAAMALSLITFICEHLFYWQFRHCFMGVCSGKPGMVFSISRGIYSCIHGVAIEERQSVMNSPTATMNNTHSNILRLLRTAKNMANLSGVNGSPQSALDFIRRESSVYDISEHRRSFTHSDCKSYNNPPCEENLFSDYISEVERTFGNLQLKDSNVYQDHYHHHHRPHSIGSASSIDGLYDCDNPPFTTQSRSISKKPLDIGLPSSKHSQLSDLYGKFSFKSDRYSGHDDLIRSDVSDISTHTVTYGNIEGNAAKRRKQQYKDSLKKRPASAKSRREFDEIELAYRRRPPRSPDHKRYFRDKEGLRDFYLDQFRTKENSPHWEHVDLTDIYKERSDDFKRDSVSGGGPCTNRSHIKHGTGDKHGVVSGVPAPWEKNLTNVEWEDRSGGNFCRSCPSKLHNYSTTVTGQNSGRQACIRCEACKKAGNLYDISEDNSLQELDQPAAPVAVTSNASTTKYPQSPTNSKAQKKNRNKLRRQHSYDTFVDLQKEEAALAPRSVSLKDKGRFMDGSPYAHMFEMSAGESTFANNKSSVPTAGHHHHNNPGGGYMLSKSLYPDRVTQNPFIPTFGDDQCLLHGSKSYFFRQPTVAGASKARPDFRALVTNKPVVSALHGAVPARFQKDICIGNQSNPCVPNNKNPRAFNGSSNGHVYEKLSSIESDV

[6] = system: Glutamate receptor ionotropic, NMDA 2B (Homo sapiens), Q13224 [S548A]; assay: Inhibition of NR2B receptor Pre-M1 S548A mutant expressed in Xenopus oocytes assessed as NMDA current at 0.5 mM relative to control; format: cell-based; conditions: Oocyte
[7] = system: Glutamate receptor ionotropic, NMDA 2B (Homo sapiens), Q13224 [V558A]; assay: Inhibition of NR2B receptor Pre-M1 V558A mutant expressed in Xenopus oocytes assessed as NMDA current at 0.5 mM relative to control; format: cell-based; conditions: Oocyte
[8] = system: Glutamate receptor ionotropic, NMDA 2B (Homo sapiens), Q13224 [N649A]; assay: Inhibition of NR2B receptor M3c N649A mutant expressed in Xenopus oocytes assessed as NMDA current at 0.5 mM relative to control; format: cell-based; conditions: Oocyte
[9] = system: Glutamate receptor ionotropic, NMDA 2B (Homo sapiens), Q13224 [F176A]; assay: Binding affinity to NR2B receptor ATD F176A mutant
[10] = system: Glutamate receptor ionotropic, NMDA 2B (Homo sapiens), Q13224 [T233A]; assay: Binding affinity to NR2B receptor ATD T233A mutant
Glutamate receptor ionotropic, NMDA 2B (Homo sapiens), Q13224 [T233A], sequence (Q13224 whole entry T233A): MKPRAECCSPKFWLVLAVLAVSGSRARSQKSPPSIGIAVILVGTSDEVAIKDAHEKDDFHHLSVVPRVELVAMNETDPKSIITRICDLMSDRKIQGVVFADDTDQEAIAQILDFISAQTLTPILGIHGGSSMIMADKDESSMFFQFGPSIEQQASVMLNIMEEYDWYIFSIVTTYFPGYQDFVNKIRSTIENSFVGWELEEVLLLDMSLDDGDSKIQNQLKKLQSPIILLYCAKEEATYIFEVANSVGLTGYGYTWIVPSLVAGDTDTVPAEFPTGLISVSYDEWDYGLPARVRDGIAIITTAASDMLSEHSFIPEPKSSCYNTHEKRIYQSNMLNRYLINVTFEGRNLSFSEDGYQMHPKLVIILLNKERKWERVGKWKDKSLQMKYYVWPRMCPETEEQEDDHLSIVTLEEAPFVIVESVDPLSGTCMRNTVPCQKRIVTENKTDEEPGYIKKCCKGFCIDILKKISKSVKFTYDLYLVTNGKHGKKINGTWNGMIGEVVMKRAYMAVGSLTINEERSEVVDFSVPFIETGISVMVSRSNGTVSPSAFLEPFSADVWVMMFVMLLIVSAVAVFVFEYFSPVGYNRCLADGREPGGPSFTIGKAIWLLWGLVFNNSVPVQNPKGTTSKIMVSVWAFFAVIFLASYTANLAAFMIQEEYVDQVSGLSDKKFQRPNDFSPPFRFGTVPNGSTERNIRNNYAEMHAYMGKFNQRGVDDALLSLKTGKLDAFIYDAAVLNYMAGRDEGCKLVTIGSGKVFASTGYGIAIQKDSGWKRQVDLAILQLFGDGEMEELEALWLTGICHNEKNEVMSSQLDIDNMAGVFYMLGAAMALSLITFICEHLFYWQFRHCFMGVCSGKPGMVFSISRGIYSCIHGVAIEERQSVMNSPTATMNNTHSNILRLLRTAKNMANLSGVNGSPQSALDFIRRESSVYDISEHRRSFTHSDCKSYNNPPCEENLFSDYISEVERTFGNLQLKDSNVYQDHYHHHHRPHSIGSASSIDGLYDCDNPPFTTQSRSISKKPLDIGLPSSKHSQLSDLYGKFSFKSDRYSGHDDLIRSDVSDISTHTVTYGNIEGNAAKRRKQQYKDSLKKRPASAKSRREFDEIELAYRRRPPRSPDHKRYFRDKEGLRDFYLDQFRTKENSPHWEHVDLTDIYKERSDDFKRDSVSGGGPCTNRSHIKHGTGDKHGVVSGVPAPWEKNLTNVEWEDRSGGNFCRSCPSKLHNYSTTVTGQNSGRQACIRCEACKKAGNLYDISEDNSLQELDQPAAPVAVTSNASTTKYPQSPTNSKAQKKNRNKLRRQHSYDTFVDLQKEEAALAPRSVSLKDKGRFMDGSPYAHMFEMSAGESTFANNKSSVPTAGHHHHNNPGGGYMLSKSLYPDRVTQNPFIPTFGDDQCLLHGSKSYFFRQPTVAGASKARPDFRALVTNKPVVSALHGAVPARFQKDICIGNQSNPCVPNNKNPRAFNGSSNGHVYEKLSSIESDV

[11] = Ratio of Kapp for wild type NR2B receptor to Kapp for NR2B receptor S645A/T103A mutant
[12] = Binding affinity to NR2B receptor […]/S645A mutant
[13] = system: Glutamate receptor ionotropic, NMDA 2B (Homo sapiens), Q13224 [S645A,T103A]; assay: Binding affinity to NR2B receptor S645A/T103A mutant
[14] = system: Glutamate receptor ionotropic, NMDA 2B (Homo sapiens), Q13224 [T103A,K234A]; assay: Binding affinity to NR2B receptor T103A/K234A mutant
[15] = Ratio of Kapp for wild type NR2B receptor to Kapp for NR2B receptor ATD K234A mutant
[16] = Ratio of Kapp for wild type NR2B receptor to Kapp for NR2B receptor M3c I641A mutant

inhibition [1]: 85% | inhibition [2]: 83% | inhibition [3]: 64% | inhibition [4]: 85% | inhibition [5]: 72% | inhibition [6]: 76% | inhibition [7]: 71% | Activity [8]: inactive | Kapp [9]: 2.77 mM | Kapp [10]: 2.56 mM | Ratio Ki(app) [11]: 7.2 | Kapp [12]: 7.04 mM | Kapp [13]: 6.28 mM | Kapp [14]: 4.14 mM | Ratio Ki(app) [15]: 4.9 | Ratio Ki(app) [16]: 2.8
Compound: NC(=O)OCC(COC(N)=O)c1ccccc1
